Reference: PMC9848259 (Journal of Enzyme Inhibition and Medicinal Chemistry, 2023)

Legend:
SH-SY5Y cells [1] = assay: Neuroprotection against rotenone/oligomycin A, pre-incubation, MTT test; assay type: cell-based, human; details: Rotenone/Oligomycin A 30/10 µM
SH-SY5Y cells [2] = assay: Neuroprotection against rotenone/oligomycin A, co-incubation, MTT test; assay type: cell-based, human; details: Rotenone/Oligomycin A 30/10 µM
ACHE and BACE-1A = target: T1, ACHE and BACE-1A (Homo sapiens, UniProt P22303+P56817); assay: Yeast three-hybrid (Y3H) assay with β-galactosidase readout; assay type: cell-based, Saccharomyces cerevisiae; details: 10 µM ligand
T1 construct: the prepared pGBKT7-hACHE plasmid contained the cDNA fragment encoding for aa 52–577; obtained from the extracellular, N-terminal domain (aa 46–457) of BACE1A (GenBank: AF204943.1); host or cells: Saccharomyces cerevisiae Y2HGold (bait) mated with Y187 (prey)
T1 sequence (P22303 52-577): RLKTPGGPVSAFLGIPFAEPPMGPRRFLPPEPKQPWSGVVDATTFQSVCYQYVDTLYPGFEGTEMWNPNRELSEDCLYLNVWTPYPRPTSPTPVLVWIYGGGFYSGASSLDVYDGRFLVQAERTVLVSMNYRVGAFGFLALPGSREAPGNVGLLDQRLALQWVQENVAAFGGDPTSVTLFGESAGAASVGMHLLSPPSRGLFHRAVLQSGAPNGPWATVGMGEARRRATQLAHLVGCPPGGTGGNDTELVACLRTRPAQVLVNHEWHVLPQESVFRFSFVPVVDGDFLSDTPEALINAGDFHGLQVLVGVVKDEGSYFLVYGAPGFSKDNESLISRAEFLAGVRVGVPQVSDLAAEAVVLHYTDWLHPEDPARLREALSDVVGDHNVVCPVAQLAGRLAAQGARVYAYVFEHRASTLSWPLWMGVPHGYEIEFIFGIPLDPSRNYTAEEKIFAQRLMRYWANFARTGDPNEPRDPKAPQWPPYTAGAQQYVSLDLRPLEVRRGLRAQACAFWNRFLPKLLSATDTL
T1 sequence (P56817 46-457): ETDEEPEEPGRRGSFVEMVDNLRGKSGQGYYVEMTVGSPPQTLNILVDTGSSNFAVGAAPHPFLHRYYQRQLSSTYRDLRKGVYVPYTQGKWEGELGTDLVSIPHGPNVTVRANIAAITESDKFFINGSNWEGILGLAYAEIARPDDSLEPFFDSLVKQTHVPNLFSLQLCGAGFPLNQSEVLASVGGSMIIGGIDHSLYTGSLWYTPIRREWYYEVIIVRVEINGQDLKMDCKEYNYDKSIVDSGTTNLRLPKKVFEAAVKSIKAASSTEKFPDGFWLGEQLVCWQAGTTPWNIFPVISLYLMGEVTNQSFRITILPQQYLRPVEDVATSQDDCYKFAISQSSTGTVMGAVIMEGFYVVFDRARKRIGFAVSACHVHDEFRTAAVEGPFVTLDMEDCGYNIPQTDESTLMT
Procedure: The Y3H method was used to analyse the possible hybrid-ligand induced interactions between five selected proteins. […]. Yeast codon optimisation was performed to facilitate high expression of human recombinant proteins in Saccharomyces cerevisae. The fragments for the signal peptide (aa 1–51) and domain responsible for protein tetramerization (aa 578–611) were obtained from the cDNA encoding for human ACHE (GenBank M55040.1). Therefore, the prepared pGBKT7-hACHE plasmid contained the cDNA fragment encoding for aa 52–577. […]
The yeast ẞ-galactosidase microplate assay protocol (stopped) was used to evaluate the ẞ-galactosidase activity in the yeast culture according to the manufacturer’s instructions. […] Optical density was measured at 660 nm and absorbance at 420 nm by a Synergy H1 spectrophotometer (Biotek). In the quantitative ẞ-galactosidase assay, the hybrid ligand 3e was used. […]

LogP assay (RP-HPLC) = assay type: physicochemical; details: pH 11 mobile phases, read-out: logP Experimental
Procedure: Methanol (POCH) was used as an organic modifier. Demineralised water was purified in our faculty. The methanol and water solution were set at pH 11 using 30 mM Triethylamine (TEA) (Sigma Aldrich). Ten isocratic mobile phases were used in the calibration and assay. The first mobile phase contained 50% methanol solution with 30 mM TEA and 50% water solution with 30 mM TEA. Each subsequent mobile phase contained 5% more methanol solution: the final mobile phase consisted of […] solution mix. The method required uncharged substances to be used during analysis.
These substances were selected on the basis of their structural similarity to the test compounds. The stock solutions contained about 1 mg/ml of calibration compounds or test compounds. The injection concentration was 100 µg/ml, and the injection volume was 7 µl.
A Waters 600 HPLC system was used with a photodiode array detector (PDA). The detector was set at the respective optimum absorption wavelength for each compound. The system used an Xbridge C18 50 mm × 4.6 mm i.d., 3.5 µm, chromatographic column (Waters). Data acquisition and processing were performed on Waters Millennium software.
The assay was performed according to Chao Liang et al. with modification. […]
Test compound was eluted by all mobile phases. […] The logP value was read from the calibration curve. […]

SMILES: O=C(NCCCCCCNc1c2c(nc3ccccc13)CCC2)c1cc(Cl)cc(Cl)c1 [Compound 3e]
- % neuroprotection (SH-SY5Y cells [1]; compound 0.0001 µM): 17.64%
- % neuroprotection (SH-SY5Y cells [1]; compound 0.001 µM): 12.46%
- % neuroprotection (SH-SY5Y cells [1]; compound 0.01 µM): 7.65%
- % neuroprotection (SH-SY5Y cells [1]; compound 0.1 µM): 2.41%
- % neuroprotection (SH-SY5Y cells [2]; compound 0.0001 µM): 12.75%
- % neuroprotection (SH-SY5Y cells [2]; compound 0.001 µM): 8.67%
- % neuroprotection (SH-SY5Y cells [2]; compound 0.01 µM): 2.82%
- β-galactosidase activity (strength of interaction) (ACHE and BACE-1A; 96 h, triplicate): 206.37 ± 4.85 units
- hybrid ligand-mediated interaction of ACHE-BACE-1A protein pair (blue colonies) (ACHE and BACE-1A; DDO and QDO/X/A plates): yielded blue colonies
- chromatographic logP (LogP assay (RP-HPLC)): 5.44
